PubChem BioAssay AID1959 (Broad Institute, 2009)
The source made the active and inactive calls.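 Rule for the calls: active = growth-inhibition EC50 no more than tenfold above the top tested dose; inconclusive = flat fit between 30% and 70% inhibition, or unreliable fit; inactive = EC50 more than tenfold above the top tested dose.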

Tested on: E. coli NEB5alpha growth, BacTiter-Glo luminescence, 4 h
Experiment: Escherichia coli growth inhibition, dose response, counter-screen for MEX-5/POS-1 RNA-binding inhibitor project, luminescence, NEB5alpha (AID 1959);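 note: pUC19-transformed ampicillin-resistant cells grown in LB with ampicillin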

SMILES: CCCN1CC=C2C(C#N)=C(N)C(C#N)(C#N)C(c3cc(OC)ccc3OC)C2C1 (stereo unspecified)
- EC50: > 11 µM (inactive)

SMILES: COc1ccc(N=Cc2cc3c(cc2O)OC(N)=C(C#N)C3c2ccccc2)cc1 (stereo unspecified)
- EC50: > 11 µM (inactive)

SMILES: CCN1CCN(Cc2c(O)ccc3c2O/C(=C\c2ccc(C)cc2)C3=O)CC1
- EC50: > 11 µM (inactive)

SMILES: CCN(CC)c1ccc(N=Cc2c(O)n(-c3ccccc3)c(=O)[nH]c2=O)cc1
- EC50: > 11 µM (inactive)

SMILES: CN1CCC2(CC1)C(C#N)=C(N)NC(S)=C2C#N
- EC50: > 11 µM (inactive)

SMILES: CCN(CC)C(=O)Cn1cc(/C=C2\C(=O)NC(=O)N(c3ccccc3F)C2=O)c2ccccc21
- EC50: > 11 µM (inactive)

SMILES: O=C(O)C(=O)/C(=C\c1ccc(Cl)cc1)c1ccc2ccccc2n1
- EC50: > 11 µM (inactive)

SMILES: Cc1cc([N+](=O)[O-])nn1CC(=O)NNC(=S)Nc1ccc([N+](=O)[O-])cc1
- EC50: > 11 µM (inactive)

SMILES: O=C(N/N=C/c1c(O)n(CCc2ccc(F)cc2)c(=O)[nH]c1=O)c1ccccc1
- EC50: > 11 µM (inactive)

SMILES: COc1ccccc1Oc1cn[nH]c1-c1ccc(OCC(=O)NN)cc1O
- EC50: > 11 µM (inactive)

SMILES: N=c1c(C(=O)NC2CCCCC2)cc2c(=O)n3ccccc3nc2n1Cc1ccc(F)cc1
- EC50: > 11 µM (inactive)

SMILES: OCCOc1ccc(C2=NCCO2)cc1
- EC50: > 11 µM (inactive)

SMILES: CCCCOc1cccc(C2C(C(=O)c3ccc(C)o3)=C(O)C(=O)N2c2nnc(C)s2)c1 (stereo unspecified)
- EC50: > 11 µM (inactive)

SMILES: Cc1ccc(NC(=O)CN2C(=O)S/C(=C\c3cccn3-c3cccc(C(=O)O)c3)C2=O)cc1C
- EC50: > 11 µM (inactive)

SMILES: CC(=O)Nc1ccc(/C=C/C(=O)c2ccc3c(c2)OCCO3)cc1
- EC50: > 11 µM (inactive)

SMILES: Cc1cc(/C=C2\SC(=O)N(C)C2=O)c(C)n1-c1cccc(C(=O)O)c1
- EC50: > 11 µM (inactive)

SMILES: CC1(C)CC(=O)C2=C(C1)OC(N)=C(C#N)[C@@]21C(=O)N(CC(N)=O)c2ccccc21
- EC50: > 11 µM (inactive)

SMILES: N#CC1=C(N)OC2=C(C(=O)CCC2)[C@]12C(=O)N(CC(N)=O)c1ccccc12
- EC50: > 11 µM (inactive)

SMILES: Cc1cc(C)nc(NNC2=CC(=O)CC(C)(C)C2)n1
- EC50: > 11 µM (inactive)

SMILES: CN=C1S/C(=C\c2cn(CC(=O)OC)c3ccccc23)C(=O)N1C
- EC50: > 11 µM (inactive)

SMILES: O=[N+]([O-])c1ccccc1S(=O)(=O)n1nnc2ccccc21
- EC50: > 11 µM (inactive)

SMILES: S=C1NC2(CCS1)Oc1ccccc1C1CC(c3ccccc3)=NN12 (stereo unspecified)
- EC50: > 11 µM (inactive)

SMILES: C[C@@H]1O[C@@H](Oc2c(-c3cc(O)c(O)c(O)c3)oc3cc(O)cc(O)c3c2=O)[C@H](O)[C@H](O)[C@H]1O
- EC50: > 11 µM (inactive)

SMILES: Cc1cc(O)cc2c1C(=O)/C(=C/c1ccco1)O2
- EC50: > 11 µM (inactive)

SMILES: O=C(NNC(=O)c1csc(-c2cccnc2)n1)c1ccccc1
- EC50: > 11 µM (inactive)

SMILES: ClCc1nc2ccccc2n1Cc1ccccc1
- EC50: > 11 µM (inactive)

SMILES: O=C1c2ccccc2S(=O)(=O)c2cc(N3CCC(C(=O)N4CCCCC4)CC3)ccc21
- EC50: > 11 µM (inactive)

SMILES: CCN1C(=O)/C(=C\N(C)C)NC1=S
- EC50: > 11 µM (inactive)

SMILES: CCNC(=O)c1cc2c(=O)n3cccc(C)c3nc2n(Cc2ccc(C)cc2)c1=N
- EC50: > 11 µM (inactive)

SMILES: C=CCNC(=S)Nc1cc(Cl)ccc1OC
- EC50: > 11 µM (inactive)

SMILES: CCCn1c(O)c(CN2CCCCC2)c(C)c(C#N)c1=O
- EC50: > 11 µM (inactive)

SMILES: Cc1ccccc1NS(=O)(=O)c1cc(C(=O)N2CCCC2)ccc1C
- EC50: > 11 µM (inactive)

SMILES: C=CCc1cccc(/C=N/n2cnnc2)c1O
- EC50: > 11 µM (inactive)

SMILES: O=c1[nH]c2ccccc2nc1/C=C/c1ccc(F)cc1
- EC50: > 11 µM (inactive)

SMILES: Cc1cc(/C=C2\C(=O)NC(=O)N(c3ccc(Br)cc3)C2=O)c(C)n1C
- EC50: > 11 µM (inactive)

SMILES: COc1cccc(C2C3CN(C)CC=C3C(C#N)=C(N)C2(C#N)C#N)c1OC (stereo unspecified)
- EC50: > 11 µM (inactive)

SMILES: Cc1ccc(NC(=S)c2ccc3ccccc3n2)c(C)c1
- EC50: > 11 µM (inactive)

SMILES: COc1ccccc1NC(=O)c1sc2nc(Cc3ccccc3)cc(C(F)(F)F)c2c1N
- EC50: > 11 µM (inactive)

SMILES: CCCNC(=O)c1ccc2c(=O)c(O)c(-c3ccc(F)cc3)[nH]c2c1
- EC50: > 11 µM (inactive)

SMILES: CCCSc1nnc(N2C(=O)C(O)=C(C(=O)c3ccco3)C2c2ccccc2F)s1 (stereo unspecified)
- EC50: > 11 µM (inactive)

SMILES: Oc1ccc(C2=CSC3=NCCN23)cc1O
- EC50: > 11 µM (inactive)

SMILES: O=C(N/N=C/c1c(O)ccc2ccccc12)Nc1ccccc1
- EC50: > 11 µM (inactive)

SMILES: NC(=S)N=Nc1ccc(NN=C(N)N)cc1
- EC50: > 11 µM (inactive)

SMILES: COc1cc(C(CCN2CCCC2)c2c(OC)cc(OC)c3c(-c4ccccc4)cc(=O)oc23)cc(OC)c1OC (stereo unspecified)
- EC50: > 11 µM (inactive)

SMILES: Cc1c(NC(=O)CSc2ccc(Cl)cc2)cccc1-c1nc2cc(Cl)ccc2o1
- EC50: > 11 µM (inactive)

SMILES: COc1cc(C2C(C#N)=C(N)OC3=C2C(=O)CC(C)(C)C3)cc([N+](=O)[O-])c1O (stereo unspecified)
- EC50: > 11 µM (inactive)

SMILES: N#CCC(N)=C(C#N)C#N
- EC50: > 11 µM (inactive)

SMILES: Cc1cc(C)cc(N2C(=O)NC(=O)/C(=C\c3cccn3-c3ccc(Cl)cc3)C2=O)c1
- EC50: > 11 µM (inactive)

SMILES: COc1ccc(/C=C2\SC(=S)N(CCC(=O)NC3CCCC3)C2=O)cc1OC
- EC50: > 11 µM (inactive)

SMILES: O=C(CNC(=O)/C=C/c1ccco1)N=Nc1c(O)[nH]c2ccccc12
- EC50: > 11 µM (inactive)

SMILES: CC[C@H](C)/C=C(C)/C=C/C1=CC2=C(Cl)C(=O)[C@@](C)(OC(C)=O)C(=O)C2=CO1
- EC50: > 11 µM (inactive)

SMILES: COc1ccccc1N1C(=O)C2C(C(=O)c3ccccc3)=NN(c3ccc(C)cc3)C2C1=O (stereo unspecified)
- EC50: > 11 µM (inactive)

SMILES: Cc1cccn2c(=O)c3cc(C(=O)NCCN4CCOCC4)c(=N)n(Cc4cccnc4)c3nc12
- EC50: > 11 µM (inactive)

SMILES: COc1cccc(/C=C2\SC(=S)N(CCCC(=O)NC3=NCCS3)C2=O)c1
- EC50: > 11 µM (inactive)

SMILES: O=c1[nH]c(CN2CCc3ccccc3C2)nc2ccccc12
- EC50: > 11 µM (inactive)

SMILES: N#C/C(=N\Nc1ccc(Cl)cc1)C(=O)c1ccsc1
- EC50: > 11 µM (inactive)

SMILES: CN1CC=C2C(C#N)=C(N)C(C#N)(C#N)C(c3ccncc3)C2C1 (stereo unspecified)
- EC50: > 11 µM (inactive)

SMILES: COc1cc(C2C3CN(C)CC=C3C(C#N)=C(N)C2(C#N)C#N)ccc1OC(C)C (stereo unspecified)
- EC50: > 11 µM (inactive)

SMILES: CCOc1cccc(C2C(C(=O)c3ccc(C)o3)=C(O)C(=O)N2c2nccs2)c1 (stereo unspecified)
- EC50: > 11 µM (inactive)

SMILES: CCOC(=O)C1=C(O)/C(=C/c2cn(CC(=O)N3CCCC3)c3ccccc23)SC1=Nc1ccccc1
- EC50: > 11 µM (inactive)

SMILES: Nc1ccc2c(c1)-c1ccccc1S(=O)(=O)N2
- EC50: > 11 µM (inactive)

SMILES: COc1ccc(C2=CC3=C(Br)C(=O)C(C)(OC(=O)c4ccco4)C(=O)C3=CO2)cc1 (stereo unspecified)
- EC50: > 11 µM (inactive)

SMILES: CC(C)(C)c1nn(-c2ccccc2)c2[nH]c(=O)c(CNCc3ccco3)cc12
- EC50: > 11 µM (inactive)

SMILES: CN1CCc2cc(O)cc3c2[C@H]1Cc1ccc(O)c(O)c1-3
- EC50: > 11 µM (inactive)

SMILES: Cc1ccc(NC(=O)CCS(=O)(=O)c2cc3c(cc2Cl)NC(=O)CO3)cc1
- EC50: > 11 µM (inactive)

SMILES: c1ccc(-c2nnc(-c3ccccn3)nn2)nc1
- EC50: > 11 µM (inactive)

SMILES: O=C(N/N=C\c1ccc(-c2ccc(Cl)c(Cl)c2)o1)C(=O)N1CCCC1
- EC50: > 11 µM (inactive)

SMILES: Cc1ncc(CO)c(/C=N/NC(=O)c2cc(O)c(O)c(O)c2)c1O
- EC50: > 11 µM (inactive)

SMILES: COC(=O)[C@H](CCSC)NC(=O)NC1CCN(Cc2ccccc2)CC1
- EC50: > 11 µM (inactive)

SMILES: O=C(O)c1ccccc1-n1cccc1C(=O)O
- EC50: > 11 µM (inactive)

SMILES: COc1ccc(/C=c2\sc3nc(=O)c(C)nn3c2=O)c(OC)c1
- EC50: > 11 µM (inactive)

SMILES: Cc1cccc(Oc2nc(-c3ccccn3)nc3ccccc23)c1
- EC50: > 11 µM (inactive)

SMILES: O=C(N/N=C/c1c(O)n(Cc2ccccc2)c(=O)[nH]c1=O)c1ccncc1
- EC50: > 11 µM (inactive)

SMILES: CCN(CC)c1ccc(N=Cc2ccc(N(CC)CC)cc2O)cc1
- EC50: > 11 µM (inactive)

SMILES: COc1ccc(S(=O)(=O)C(C#N)c2nc3ccccc3nc2N2CCC(C)CC2)cc1 (stereo unspecified)
- EC50: > 11 µM (inactive)

SMILES: Nc1cccc2c1C(=O)N(c1ccccc1)C2=O
- EC50: > 11 µM (inactive)

SMILES: C=CCN1C(=O)NC(=O)/C(=C/c2ccc(OCC(=O)Nc3ccc(C)cc3)cc2)C1=O
- EC50: > 11 µM (inactive)

SMILES: O=C(O)CCCN1C(=O)/C(=C/c2ccc(-c3nc4ccccc4s3)o2)SC1=S
- EC50: > 11 µM (inactive)

SMILES: c1ccc2oc(CCc3nc4ccccc4o3)nc2c1
- EC50: > 11 µM (inactive)

SMILES: COC(=O)C1=C(C)N(Cc2ccccc2)C(=NCC(C)C)N[C@H]1c1ccccc1
- EC50: > 11 µM (inactive)

SMILES: Oc1[nH]c2ccc(Br)cc2c1N=Nc1nn[nH]n1
- EC50: > 11 µM (inactive)

SMILES: COc1ccc(-n2cc(CNCc3cnc4ccccn34)c(-c3cccc(F)c3)n2)cc1
- EC50: > 11 µM (inactive)

SMILES: CSCC(C)N1CCC(N2CCC(C(=O)NCc3ccccn3)CC2)CC1 (stereo unspecified)
- EC50: > 11 µM (inactive)

SMILES: CC1=CC(=C(C#N)c2nc3ccccc3s2)C=C(C)N1CC1CCCO1 (stereo unspecified)
- EC50: > 11 µM (inactive)

SMILES: CCOC(=O)c1ccc(-c2ccc(C=O)o2)cc1
- EC50: > 11 µM (inactive)

SMILES: Cc1ccc(-c2nc(C=Nc3ccc(O)cc3)c(O)o2)cc1
- EC50: > 11 µM (inactive)

SMILES: Cc1cccc(N2C(=O)/C(=C/c3ccc(CN(CCC#N)S(C)(=O)=O)o3)C(=O)NC2=S)c1
- EC50: > 11 µM (inactive)

SMILES: CCOc1ccc(-n2c(O)c(/C=C3\C=Nc4ccccc43)c(=O)[nH]c2=O)cc1
- EC50: > 11 µM (inactive)

SMILES: COc1ccc(Nc2ncnc3nc[nH]c23)cc1OC
- EC50: > 11 µM (inactive)

SMILES: COc1cccc(N2C(=O)/C(=C/c3ccc(C)o3)C(=O)NC2=S)c1
- EC50: > 11 µM (inactive)

SMILES: COc1cc(N=Cc2c(O)c3ccccc3oc2=O)c(OC)cc1Cl
- EC50: > 11 µM (inactive)

SMILES: CCOC(=O)c1c[nH]c2nc(C)ccc2c1=O
- EC50: > 11 µM (inactive)

SMILES: O=C(c1ccco1)[C@@H]1[C@@H]2C(=O)N(c3ccccc3)C(=O)[C@@H]2C2c3ccccc3C=CN21 (stereo partly specified)
- EC50: > 11 µM (inactive)

SMILES: Cc1cc(=O)oc2c(CN3CCC(C)CC3)c(O)c(Cl)cc12
- EC50: > 11 µM (inactive)

SMILES: O=c1[nH]nc(CNc2ccc(O)cc2)c2ccccc12
- EC50: > 11 µM (inactive)

SMILES: COC(=O)c1ccccc1-n1cccc1C(=O)NP(=O)(N1CCOCC1)N1CCOCC1
- EC50: > 11 µM (inactive)
